# Data from US5563044A, “Process for the enzymatic preparation of GRF(1-44)NH2” (Hoffmann-La Roche Inc., priority 1995, dated 1996).
# Ends that are not written are not given here.
# Key:
# [1] = qualitative statement in background; comparison of the 44, 40 and 37 amino acid forms and the free acid; cited from earlier work
# [2] = system: rat pituitary cell cultures; test: In vitro bioassay in rat pituitary cell cultures with a specific rat growth hormone radioimmunoassay; assay type: cell-based; settings: relative potency; rat pituitary in vitro bioassay in which the potency of GRF(1-44)-NH2 standard is 1.00; enzymatically prepared product of Example 1
# Procedure: All amino acid derivatives were of the L-configuration and purchased from Bachem (Torrance, Calif.). Porcine trypsin (Sigma, Type IX) was assayed against N^α benzoyl-L-arginine ethyl ester (BAEE) and the specific activity determined to be 1.85×10^4 U/mg. It was treated with N-tosyl-L-phenylalaninechloromethylketone (TPCK) [G. Schoellman and E. Shaw, Biochemistry, 2, 252 ([…])] and dialyzed extensively against distilled water and lyophilized to give 2.02×10^4 U/mg. N,N-Dimethylacetamide (Kodak, Spectro Grade) and 1,4-butanediol (Sigma, Gold Label) were dried over 3A sieves. Tryptic digests were carried out in solutions of the peptide (1 mg/mL) and bovine trypsin (Millipore, 0.1 mg/mL) in 0.5M NH4 HCO3 (pH 8.0) for 20 hours. All pH measurements were made with a glass electrode. In vitro bioassays were done in rat pituitary cell cultures and using a specific rat growth hormone radioimmunoassay as previously described (P. Brazeau et al., Proc. Natl. Acad. Sci. USA, 79, 7909 (1982). GRF(1-43)-OH was prepared by solid-phase synthesis as follows:
# The final yield of GRF(1-44)-NH2 was 1.95 mg ([…], 37%). FAB-MS: (M+H)^+ Calc: 5040.7, Found: 5040.5. Amino Acid Anal (6M HCl; 110° C., 72 h.): Asp, 4.12(4); Thr, 0.97(1); Ser, 3.65(4); Glu, 7.54(7); Gly, 2.99(3); Ala, 5.27(5); Val, 1.04(1); Met, 0.92(1); Ile, 2.01(2); Leu, 5.13(5); Tyr, 1.87(2); Phe, 0.91(1); Lys, 2.03(2); Arg, 5.54(6). […]
substance,measurement,setting,value
"GRF(1-40)-OH (YADAIFTNSYRKVLGQLSARKLLQDIMSRQQGESNQERGA-OH; UniProt P01286 32-71, looked up, fragment) [free acid form of Growth Hormone Releasing Factor mentioned in the background, reference compound]",Level of activity / potency among GRF forms,[1],substantially lower level of activity
GRF(1-44)-NH2,In vitro biological potency,[2],0.92±0.22
same,Level of activity / potency among GRF forms,[1],full intrinsic activity and highest potency
